Drawing on ChEMBL document CHEMBL1152872, “Discovery of N-{[1-(propylsulfonyl)-4-pyridin-2-ylpiperidin-4-yl]methyl}benzamides as novel, selective and potent GlyT1 inhibitors” (Bioorg Med Chem Lett, 2009), this text covers solubility and IC50 for three molecules.

Data set [1] can be described thus: Solubility in water. Format: physicochemical.
The target in data set [2] is T1, Sodium- and chloride-dependent glycine transporter 1 (Homo sapiens, UniProt P48067).
T1 sequence (P48067 whole entry): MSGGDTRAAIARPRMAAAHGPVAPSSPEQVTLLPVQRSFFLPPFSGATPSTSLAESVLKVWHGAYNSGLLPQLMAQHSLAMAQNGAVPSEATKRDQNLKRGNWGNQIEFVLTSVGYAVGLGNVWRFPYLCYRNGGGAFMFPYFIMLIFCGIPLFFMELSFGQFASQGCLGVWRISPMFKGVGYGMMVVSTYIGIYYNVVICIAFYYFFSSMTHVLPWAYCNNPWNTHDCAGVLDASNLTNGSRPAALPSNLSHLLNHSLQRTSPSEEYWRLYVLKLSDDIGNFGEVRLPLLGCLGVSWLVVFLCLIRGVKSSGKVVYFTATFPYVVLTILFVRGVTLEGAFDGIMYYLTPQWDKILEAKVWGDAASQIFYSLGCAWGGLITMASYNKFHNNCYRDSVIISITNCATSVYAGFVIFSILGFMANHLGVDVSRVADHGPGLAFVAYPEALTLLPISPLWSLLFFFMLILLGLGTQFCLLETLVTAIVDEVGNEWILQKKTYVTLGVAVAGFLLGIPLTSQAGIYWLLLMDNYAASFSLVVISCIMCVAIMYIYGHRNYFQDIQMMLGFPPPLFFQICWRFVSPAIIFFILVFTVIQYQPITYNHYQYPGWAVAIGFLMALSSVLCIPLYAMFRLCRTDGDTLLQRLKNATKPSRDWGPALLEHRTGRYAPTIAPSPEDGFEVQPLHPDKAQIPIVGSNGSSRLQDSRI
In words: Inhibition of glycine transporter 1 by HTS assay.

Usually solubility stands for the dissolved amount per volume that the medium holds. Read a high solubility as a readily soluble substance. `CCCS(=O)(=O)N1CCC(CNC(=O)c2ccc(Cl)cc2Cl)(c2ccccn2)CC1.Cl` came in with a solubility in data set [1] of 0.85 mg/mL. Still for that read-out and setting: then `CCCS(=O)(=O)N1CCC(CNC(=O)c2c(Cl)ccc(Cl)c2F)(c2ccccn2)CC1.Cl`, with 0.57 mg/mL. Broadly, the IC50 is the concentration that gives 50% inhibition. Lower therefore signals greater potency. `CCCS(=O)(=O)N1CCC(CNC(=O)c2ccccc2OC)(c2ccccc2)CC1` gave a half-maximal inhibitory concentration (IC50) in data set [2] of 0.13 µM.
